Several values for one entry are separate records, joined by “and”; a condition that tells them apart may be missing. Identical values can stand only once.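 Exposure lasted 48 hours, with cells grown in 96-well plates and compounds tested at five concentrations. The concentration for 50% growth inhibition is given as GI50. The concentration for full growth arrest is given as TGI.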
Experiments:
Assay in all cases: NCI-60 cell line screen, 48 h
COLO 205 colon = test system: COLO 205 colon
OVCAR-8 ovarian = test system: OVCAR-8 ovarian
SK-MEL-28 melanoma = test system: SK-MEL-28 melanoma
RXF 393 renal = test system: RXF 393 renal
SF-539 CNS = test system: SF-539 CNS
OVCAR-5 ovarian = test system: OVCAR-5 ovarian
EKVX NSCLC = test system: EKVX NSCLC
SNB-75 CNS = test system: SNB-75 CNS
NCI-H226 lung = test system: NCI-H226 lung
SR leukemia = test system: SR leukemia

Structure (SMILES) | TGI (COLO 205 colon) | TGI (OVCAR-8 ovarian) | TGI (SK-MEL-28 melanoma) | TGI (RXF 393 renal) | TGI (SF-539 CNS) | TGI (OVCAR-5 ovarian) | TGI (EKVX NSCLC) | TGI (SNB-75 CNS) | GI50 (OVCAR-8 ovarian) | TGI (NCI-H226 lung) | GI50 (RXF 393 renal) | GI50 (SF-539 CNS) | TGI (SR leukemia) | GI50 (COLO 205 colon) | GI50 (NCI-H226 lung) | GI50 (SK-MEL-28 melanoma) | GI50 (OVCAR-5 ovarian) | GI50 (SR leukemia) | GI50 (SNB-75 CNS) | GI50 (EKVX NSCLC)
CCOC(=O)/C(C#N)=C1/C(O)=C(C(=O)OC)C(C(=O)OC)=C1C(=O)OC | > 100 µM | > 100 µM | > 100 µM | > 100 µM | > 100 µM | > 100 µM | > 100 µM | > 100 µM |  |  |  |  |  |  |  |  |  |  |  | 
O=S(O)CCCSSc1ccccc1 | > 100 µM | > 100 µM | > 100 µM | > 100 µM | 62.9 µM | > 100 µM | 88.1 µM | 88.2 µM |  |  |  |  |  |  |  |  |  |  |  | 
Cc1cc2c(c3oc(C4(C)OC4C4OC4C)cc(=O)c13)C(=O)c1c(O)c(C3CC(C)(N(C)C)C(O)C(C)O3)cc(C3CC(N(C)C)C(O)C(C)O3)c1C2=O (stereo not given) |  |  | 0.00277 µM and 0.000596 µM | 7.97e-05 µM and 0.000406 µM |  | 0.000244 µM and 0.00111 µM | 0.00078 µM and 0.000929 µM |  | 0.000731 µM and 0.000103 µM | 0.000537 µM and 0.000944 µM | < 1e-05 µM | 0.000117 µM | 0.00495 µM and 0.0102 µM |  |  |  |  |  |  | 
O=C(NO)c1ccc(Cn2c(=O)n(-c3ccccc3F)c(=O)c3ccccc32)cc1 | 3.76 µM | 5.11 µM | 4.25 µM | 2.9 µM | 4.58 µM | 7 µM |  | 4.78 µM | 1.05 µM | 3.27 µM | 1.33 µM | 1.53 µM | > 100 µM | 1.39 µM | 1.43 µM | 1.77 µM | 1.45 µM | 1.56 µM | 1.45 µM | 
Cc1cn2c(/C=N/N=C(N)N)c(-c3cccnc3)nc2s1 | 27.5 µM | 69 µM | 26.3 µM | 59.1 µM |  | 28.5 µM | 36.3 µM |  | 27.4 µM | 29.4 µM | 15.2 µM |  |  | 11.6 µM | 10.1 µM | 12.4 µM | 15.2 µM |  |  | 16.7 µM
CCN(CC)CCCC(C)N=c1cc(Nc2cc(=NC(C)CCCN(CC)CC)c3cc(OC)ccc3o2)oc2ccc(OC)cc12 (stereo not given) | 1.36 µM | 3.78 µM | 1.52 µM | 1.17 µM | 1.5 µM | 2.38 µM |  | 2.93 µM | 0.441 µM | 2.37 µM | 0.528 µM | 0.803 µM | 3.02 µM | 0.632 µM | 0.58 µM | 0.838 µM | 0.89 µM | 0.943 µM | 0.829 µM | 
COc1ccc(OC(C(=O)O)c2ccccc2)c2c1CCCC2=O (stereo not given) | > 100 µM | > 100 µM | > 100 µM |  | > 100 µM | > 100 µM | > 100 µM |  |  |  |  |  |  |  |  |  |  |  |  | 
O=C(CCC(C(=O)c1ccccc1)c1ccccc1)c1ccccc1 (stereo not given) | > 100 µM | > 100 µM | > 100 µM | > 100 µM | > 100 µM | > 100 µM |  | > 100 µM | 21.6 µM |  | 11.8 µM | 52 µM | > 100 µM | 8.8 µM |  | 55.7 µM | 80.4 µM | 4.46 µM | 27.2 µM | 
CCOC(=O)[C@@H](C)C[C@H](Cc1ccccc1)NC(=O)c1csc([C@@H](C[C@H](C(C)C)N(C)C(=O)[C@H](CC)NC(=O)[C@H]2CCCCN2C)OC(C)=O)n1 | 0.0211 µM | > 16.7 µM |  |  | 0.0098 µM | > 16.7 µM | > 16.7 µM | > 16.7 µM | 0.00434 µM | 0.102 µM |  | 0.00306 µM | > 16.7 µM | < 0.00167 µM | 0.00335 µM |  | 0.0108 µM | < 0.00167 µM | < 0.00167 µM | 0.00484 µM
C=C1C(=O)O[C@@H]2C1C[C@@H](O)C(=C)CC/C=C(\C)CCC[C@H](C)[C@H]2OC(C)=O (stereo not given in full) | > 100 µM | 45.4 µM | 23 µM | 20.9 µM | 26.3 µM | 22.4 µM | 25.6 µM | 33.6 µM | 15.4 µM | 12.8 µM | 4.15 µM | 12.8 µM |  | 2.93 µM | 3.37 µM | 4.78 µM | 10.3 µM |  | 13.9 µM | 12 µM
CCCCN(CCCC)CCCn1c(=O)c2c3ccccc3n(C)c2n2nnc(-c3ccccc3)c12 | 62.9 µM | > 100 µM | > 100 µM | 43 µM | > 100 µM | > 100 µM | > 100 µM | 56.2 µM | 39.7 µM | > 100 µM | 14.1 µM | 65.3 µM |  | 5.01 µM | 57 µM | > 100 µM | 22.3 µM |  | 15.1 µM | 56.3 µM
CN(C)CCOC(c1ccccc1)c1ccccc1 | 28.3 µM and > 100 µM | 22.7 µM and > 100 µM | 35.3 µM and > 100 µM |  |  | 52.4 µM and > 100 µM | > 100 µM |  | 14.8 µM | 56.4 µM and > 100 µM |  |  | > 100 µM | 14 µM | 39.7 µM | 18.1 µM | 36.7 µM |  |  | 
Cc1nn(-c2nc3ccccc3s2)c2c1C(=O)c1ccccc1-2 | > 100 µM |  | > 100 µM | > 100 µM | > 100 µM | > 100 µM | > 100 µM | > 100 µM |  |  |  |  | > 100 µM |  |  |  |  |  |  | 
COc1ccc(-c2nc(N3CCN(C(=O)C4CCCCC4)CC3)c3c4c(sc3n2)CCCC4)cc1 | > 100 µM | > 100 µM | > 100 µM | 53.4 µM | > 100 µM | > 100 µM |  | 33.9 µM | 46.4 µM | > 100 µM | 21.3 µM | 39.4 µM | > 100 µM | > 100 µM | 41 µM | > 100 µM | > 100 µM | > 100 µM | 14.1 µM | 
O=C(NCc1ccncc1)C12CC3CC(C1)CC(c1ccc(Cl)cc1)(C3)C2 | 27.1 µM |  | 25.5 µM | 23.6 µM | 28.1 µM | 28.7 µM | 26.3 µM | 27.2 µM |  | 31.1 µM | 10.7 µM | 14.1 µM | 35.7 µM | 12.7 µM | 12 µM | 12.7 µM | 14 µM | 7.98 µM | 13.2 µM | 11.6 µM
OC1C2CCC1C1C3C=CC(C3)C21 (stereo not given) | > 100 µM | > 100 µM | > 100 µM | > 100 µM |  | > 100 µM | > 100 µM | > 100 µM |  | > 100 µM |  |  | > 100 µM |  |  |  |  |  |  | 
COc1ccc(CNc2nc3cc(N)cc(N)c3nc2-c2ccccc2)cc1 | 34.1 µM | 39.5 µM | 32.3 µM | 18.4 µM |  | 46.2 µM | 28.2 µM |  | 14.8 µM | 70.5 µM | 5.32 µM |  | > 100 µM | 15.5 µM | 20.2 µM | 17.3 µM | 20.8 µM | 4.09 µM |  | 14.9 µM

From PubChem BioAssay (NCI)
